Consider 1 molecule from US7251525B2, “Treatment of arrhythmias via inhibition of a multifunctional calcium/calmodulin-dependent protein kinase” (The Board of Trustees of the Leland Stanford Jr. University, priority 1997, dated 2007).

Test [1] has as its target CaM kinase (Oryctolagus cuniculus, UniProt O77708). The test is described as follows: In vitro CaM kinase activity in left ventricular tissue homogenate. It counts as biochemical, rabbit. Particulars: LV tissue homogenate; 0-100 μmol/l. As for the experimental part: FIG. 5. Effects of KN-93 and KN-92 on CaM kinase activity in vitro. CaM kinase activity in left ventricular tissue homogenate was assayed as described in Example 5, Experimental Methods. […] The solid line represents a fit to the KN-93 data using the Hill equation.
Left ventricular homogenate was prepared as follows: after removal of the heart, it was placed in nominally Ca^2+ free ice-cold HEPES-buffered Tyrode's solution. One to two grams of the left ventricular free wall was cut away, coarsely minced, and suspended in 5-10 ml of cold homogenization buffer (mmol/l: 20 PIPES, 1 EDTA, 1 EGTA, 2 DTT, 10 sodium pyrophosphate, and 50-100 μg/ml leupeptin) at pH 7.0. Tissue suspension was homogenized at 4° C. using 3-10 sec bursts of a Polytron with 30 sec pauses inbetween bursts. The homogenate was then centrifuged at ˜10,000×g for 20 min at 4° C. using a JA-20 rotor. The supemate was removed and used directly in the assay. Protein concentration was measured by the method of Bradford, using BSA as the standard.
Assay of CaM kinase activity was performed essentially as described by Waldmann et al. with a few modifications. […] Calcium/calmodulin-dependent phosphorylation of the autocamtide 3 substrate was then quantitated as described. Calcium/calmodulin-independent CaM kinase activity was quantitated as described above, but Ca^2+ was omitted from the assay solution. […]

The subject of another test is isolated rabbit hearts. The test is described as follows: Clofilium-induced early afterdepolarizations (EADs) in isolated perfused rabbit hearts. Conditions: pretreatment 0.5 μmol/l. The text has this:
FIG. 1. […] Data tracings show (from top to bottom) monophasic action potentials (MAP) and left ventricular (LV) pressure. The horizontal lines to the left of the LV pressure tracings (top to bottom) indicate 100 mm Hg and 0 mm Hg levels and 850 ms for panels A and B. All experiments with isolated hearts consisted of 3 periods. A fourth period (experimental period 4) was only added in hearts with EADs. Experimental periods are labeled 1-4 (top of page for both panels A and B). Experimental period 1 measurements represent control and follow >10 min of stabilization. […] Period 3 measurements follow addition of clofilium (7.5 μmole/l) and are taken at EAD initiation or from the longest action potential duration recorded over 30 min. Multiple EADs are seen as 2 oscillations during repolarization on the MAP tracings in experimental period 3. Secondary elevations in LV pressure coinciding with EADs are also seen in the LV pressure tracing in experimental period 3. Experimental period 4 measurements follow EAD termination by addition of nifedipine (10 μmole/l) (shown above) or Cd^2+ (200-500 μmole/l) (data not shown). The horizontal bars indicate the experimental conditions for both panels A and B. (B) Experimental design for isolated rabbit hearts treated with CaM kinase inhibitor KN-93. Arrangement of data tracings is the same as in FIG. 1A (above). Experimental periods are also the same as in FIG. 1A (above) except the active CaM kinase inhibitor KN-93 (0.5 μmole/l) was added 10 min prior to period 2 measurements. […] (C) Continuous record of EAD termination by nifedipine (10 μM) in a heart paced at a cycle length of 1500 ms. Data tracings show MAP with single EADs (top) and LV pressure (bottom). The horizontal lines to the left of the LV pressure tracings indicate 50 mm Hg and 0 mm Hg pressure levels (top to bottom). EAD termination occurs prior to the first discernible decrease (i.e. >10% below baseline) in LV pressure. The vertical arrow marks the first beat of EAD termination.
New Zealand White rabbits of either gender (2.7-3.2 kg) were treated with a heparin bolus (150 U/kg IV) and killed by pentobarbital (50 mg/kg IV) overdose. Hearts were rapidly excised and placed in ice-cold Tyrode's solution for dissection of extracardiac tissue. (Tyrode's solution was composed of (mmol/l) NaCl (130.0), NaHCO3 (20.0), glucose (5.6), KCl (3.0), CaCl2 (2.0), NaH2PO4 (1.8), MgCl24H2O(0.7).) The aorta was cannulated, and perfused retrograde with Tyrode's solution. The perfusate (200 ml) was recirculated through a warming bath and filling pressure was adjusted to 20 cm of H2O. Recirculation time was ˜1 min, based on the time to decrease in left ventricular (LV) pressure following addition of ICa blockers to the recirculating perfusate. Temperature was monitored using a thermistor probe positioned in the right ventricle (RV) and maintained at 33±1° C. by a closed loop feed back system. The perfusate was vigorously bubbled with 95% O2, 5% CO2 and pH was monitored throughout the experiments and adjusted to 7.4 with LN NaOH or HCl, as appropriate. Both atria were removed and drains were placed in the RV and LV apices. An electrocardiogram (ecg) lead was sutured to the LV apex and the proximal pulmonary artery. Epicardial pacing wires were inserted into the RV free wall. Bradycardia was produced by crushing the AV node with a forceps. Epicardial pacing maintained a minimum cycle length of 1500 ms (heart rate of 40 beats/min). Pacing output was adjusted to twice diastolic threshold. In most experiments LV pressure was continuously monitored with a solid state transducer (Camino Laboratories) placed in a saline filled latex balloon. The balloon was secured with a purse string suture around the left atrial remnant and pressure was adjusted to maximize the LV developed pressure (LVDP) keeping the LV end diastolic pressure <10 mmHg. […]

The target in test [2] is T1, L-type Ca2+ current (ICa) (Oryctolagus cuniculus, UniProt P15381).
T1 construct: endogenous in cells; host or cells: freshly isolated New Zealand White rabbit ventricular myocytes
T1 sequence (P15381 whole entry, other chains not shown): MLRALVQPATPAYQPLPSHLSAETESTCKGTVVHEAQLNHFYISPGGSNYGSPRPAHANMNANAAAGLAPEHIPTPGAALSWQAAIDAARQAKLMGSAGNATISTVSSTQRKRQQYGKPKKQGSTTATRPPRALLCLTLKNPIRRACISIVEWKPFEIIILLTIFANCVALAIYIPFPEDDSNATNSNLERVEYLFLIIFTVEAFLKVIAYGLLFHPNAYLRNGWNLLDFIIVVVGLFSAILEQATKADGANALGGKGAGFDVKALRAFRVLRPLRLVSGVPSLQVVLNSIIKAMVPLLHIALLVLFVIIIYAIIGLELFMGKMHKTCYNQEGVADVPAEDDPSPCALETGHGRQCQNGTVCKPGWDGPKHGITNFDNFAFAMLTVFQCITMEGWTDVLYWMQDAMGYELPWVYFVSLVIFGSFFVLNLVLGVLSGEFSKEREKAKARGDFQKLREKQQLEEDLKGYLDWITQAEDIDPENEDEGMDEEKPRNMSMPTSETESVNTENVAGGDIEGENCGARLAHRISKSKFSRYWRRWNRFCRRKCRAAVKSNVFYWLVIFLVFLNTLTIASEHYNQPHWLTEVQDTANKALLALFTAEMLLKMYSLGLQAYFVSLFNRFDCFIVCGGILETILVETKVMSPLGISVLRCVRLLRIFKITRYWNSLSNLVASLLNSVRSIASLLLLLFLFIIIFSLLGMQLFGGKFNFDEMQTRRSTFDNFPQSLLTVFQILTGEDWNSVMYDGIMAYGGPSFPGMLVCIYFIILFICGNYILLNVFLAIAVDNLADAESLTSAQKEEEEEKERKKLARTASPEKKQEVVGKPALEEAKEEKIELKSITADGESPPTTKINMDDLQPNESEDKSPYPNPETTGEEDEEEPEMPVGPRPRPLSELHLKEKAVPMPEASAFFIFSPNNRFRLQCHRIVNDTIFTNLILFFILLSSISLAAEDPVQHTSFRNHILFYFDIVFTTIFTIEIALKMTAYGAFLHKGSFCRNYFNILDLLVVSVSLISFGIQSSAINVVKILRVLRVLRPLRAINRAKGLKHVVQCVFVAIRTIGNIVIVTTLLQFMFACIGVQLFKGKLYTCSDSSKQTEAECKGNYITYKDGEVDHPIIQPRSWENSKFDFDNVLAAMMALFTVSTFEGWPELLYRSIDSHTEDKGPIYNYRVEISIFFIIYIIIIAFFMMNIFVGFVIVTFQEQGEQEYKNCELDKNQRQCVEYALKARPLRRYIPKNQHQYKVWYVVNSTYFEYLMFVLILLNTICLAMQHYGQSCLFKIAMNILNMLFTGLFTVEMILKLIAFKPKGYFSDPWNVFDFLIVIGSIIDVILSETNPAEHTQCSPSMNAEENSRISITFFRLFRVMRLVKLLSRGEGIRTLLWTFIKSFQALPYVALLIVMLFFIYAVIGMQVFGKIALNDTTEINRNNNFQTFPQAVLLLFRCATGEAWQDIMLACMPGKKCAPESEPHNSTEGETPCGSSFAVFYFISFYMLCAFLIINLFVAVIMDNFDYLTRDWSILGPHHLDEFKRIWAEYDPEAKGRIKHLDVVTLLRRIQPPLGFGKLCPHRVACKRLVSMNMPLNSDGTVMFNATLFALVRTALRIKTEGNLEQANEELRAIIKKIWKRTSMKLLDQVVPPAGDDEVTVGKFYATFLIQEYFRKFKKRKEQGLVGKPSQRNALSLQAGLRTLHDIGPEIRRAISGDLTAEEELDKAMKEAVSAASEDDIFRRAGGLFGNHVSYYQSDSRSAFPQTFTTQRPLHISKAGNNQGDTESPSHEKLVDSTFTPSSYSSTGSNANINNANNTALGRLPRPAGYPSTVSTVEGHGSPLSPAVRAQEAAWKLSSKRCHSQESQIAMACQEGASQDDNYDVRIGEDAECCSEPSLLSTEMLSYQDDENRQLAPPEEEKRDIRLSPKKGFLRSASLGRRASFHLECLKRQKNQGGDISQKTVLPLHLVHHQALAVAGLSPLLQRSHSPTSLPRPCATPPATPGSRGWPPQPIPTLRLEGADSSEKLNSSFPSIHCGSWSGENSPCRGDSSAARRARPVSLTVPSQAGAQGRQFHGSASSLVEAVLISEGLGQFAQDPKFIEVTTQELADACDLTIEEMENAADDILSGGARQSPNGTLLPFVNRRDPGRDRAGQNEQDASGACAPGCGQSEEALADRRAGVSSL
T1 sequence (P13806 27-960 partner limits assumed, other chains not shown): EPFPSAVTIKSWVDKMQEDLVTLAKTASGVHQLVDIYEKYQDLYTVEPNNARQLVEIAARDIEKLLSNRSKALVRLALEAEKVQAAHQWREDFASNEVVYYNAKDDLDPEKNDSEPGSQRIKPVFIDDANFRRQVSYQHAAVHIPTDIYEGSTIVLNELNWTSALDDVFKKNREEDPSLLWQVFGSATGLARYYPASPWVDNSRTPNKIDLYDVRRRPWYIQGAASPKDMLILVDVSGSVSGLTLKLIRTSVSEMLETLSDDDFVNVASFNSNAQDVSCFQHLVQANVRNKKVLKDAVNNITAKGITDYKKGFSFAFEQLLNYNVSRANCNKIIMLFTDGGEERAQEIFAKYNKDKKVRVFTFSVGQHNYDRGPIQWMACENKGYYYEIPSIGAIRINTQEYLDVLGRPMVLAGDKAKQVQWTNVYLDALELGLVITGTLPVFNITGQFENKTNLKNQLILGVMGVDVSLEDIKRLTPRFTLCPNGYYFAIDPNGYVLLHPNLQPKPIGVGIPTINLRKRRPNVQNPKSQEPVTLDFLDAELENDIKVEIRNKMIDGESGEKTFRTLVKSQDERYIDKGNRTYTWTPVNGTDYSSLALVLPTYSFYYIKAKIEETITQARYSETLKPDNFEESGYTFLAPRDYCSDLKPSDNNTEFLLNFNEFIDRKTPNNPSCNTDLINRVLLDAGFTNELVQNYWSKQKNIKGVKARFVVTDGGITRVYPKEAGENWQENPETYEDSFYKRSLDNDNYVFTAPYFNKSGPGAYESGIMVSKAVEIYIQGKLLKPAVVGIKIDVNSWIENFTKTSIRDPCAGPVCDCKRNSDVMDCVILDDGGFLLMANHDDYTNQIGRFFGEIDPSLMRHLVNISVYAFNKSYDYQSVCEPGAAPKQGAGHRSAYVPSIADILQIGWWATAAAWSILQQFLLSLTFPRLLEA
T1 sequence (P13806 961-1106 partner limits assumed, other chains not shown): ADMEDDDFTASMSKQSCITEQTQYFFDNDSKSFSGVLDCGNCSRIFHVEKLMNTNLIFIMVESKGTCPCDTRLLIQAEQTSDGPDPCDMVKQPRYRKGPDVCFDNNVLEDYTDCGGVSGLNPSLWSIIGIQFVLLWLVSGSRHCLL
The test is described as follows: Whole cell voltage clamp of L-type Ca2+ current in single ventricular myocytes. It counts as cell-based, rabbit.

Another test relates to protein kinase A (PKA). Particulars: cited from earlier work.
In another test the test system is protein kinase C (PKC). Particulars: cited from earlier work.
Test [3] relates to CaM kinase. Particulars: congener used as experimental control; cited from earlier work.

CaM kinase (Oryctolagus cuniculus, UniProt O77708), sequence (O77708 2-533): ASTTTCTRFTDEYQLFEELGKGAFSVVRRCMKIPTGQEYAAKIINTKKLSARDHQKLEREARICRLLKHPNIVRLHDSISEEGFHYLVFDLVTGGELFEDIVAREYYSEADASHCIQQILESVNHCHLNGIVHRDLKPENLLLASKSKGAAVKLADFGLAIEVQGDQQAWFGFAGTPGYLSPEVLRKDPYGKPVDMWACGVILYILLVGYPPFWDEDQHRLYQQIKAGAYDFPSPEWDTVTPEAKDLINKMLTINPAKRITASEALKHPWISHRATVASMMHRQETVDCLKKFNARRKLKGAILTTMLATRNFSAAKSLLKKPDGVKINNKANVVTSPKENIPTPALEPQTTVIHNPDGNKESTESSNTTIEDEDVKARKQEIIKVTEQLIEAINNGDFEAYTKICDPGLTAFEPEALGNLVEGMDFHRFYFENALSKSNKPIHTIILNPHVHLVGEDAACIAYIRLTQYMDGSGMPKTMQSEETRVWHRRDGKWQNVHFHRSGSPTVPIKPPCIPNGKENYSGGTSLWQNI

Regarding `COc1ccc(S(=O)(=O)Nc2ccccc2CN(C)CC=Cc2ccc(Cl)cc2)cc1` [KN-92, 2-N-(4-methoxybenzenesulfonyl)-amino-N-(4-chlorocinnamyl)N-methylbenzylamine], at CaM kinase [1], the “inhibition of CaM kinase activity” value is given as “did not cause appreciable inhibition”. Besides, in the test on isolated rabbit hearts (clofilium 7.5 μM), the “EADs in response to clofilium (hearts with EADs/hearts)” value is reported as 10/11 and the “multiple EADs (hearts with multiple EADs/hearts)” value is 7/11. Moreover, the “left ventricular developed pressure (LVDP) following clofilium” value in the test with isolated rabbit hearts (clofilium 7.5 μmole/l) is recorded as “increased significantly”. Moreover, the “apparent voltage dependence of ICa activation” value in test [2] is reported as “Neither KN-92 or KN-93 shifted”. The “steady state inhibition of peak ICa” value in test [2] (0.5 μmol/l external application, cells dialyzed with BAPTA) was determined as 36.2±1.9%. Moreover, the “effects on protein kinase A (PKA)” value with protein kinase A (PKA) is “neither KN-93 nor KN-92 have appreciable effects”. Moreover, the “effects on protein kinase C (PKC)” value in the test on protein kinase C (PKC) is “neither KN-93 nor KN-92 have appreciable effects”. Also, in the test on CaM kinase [3], the “CaM kinase inhibitory activity” value was “without CaM kinase inhibitory activity”.
